As a reminder, the EC50 is the concentration at which the effect is half-maximal.

For the assay, the system named is HBV. Nature of the assay: HBV infection in HepG2-NTCP cells (HBeAg AlphaLISA in supernatants). In kind it is cell-based. To be noted: Hepatitis B virus, 192 h; HBV infection of HepG2-NTCP cells; HBeAg in supernatants at day 8 post infection; read-out: Cellular EC50. The gist of the method: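 HepG2-NTCP A3 cells were pre-incubated 2 h with 3-fold serially diluted compounds, then infected with HBV at 2000 GE/cell with 4% PEG (0.5% DMSO final). After washing on day 1, cells stayed in 2.5% DMSO medium; supernatant HBeAg measured by AlphaLISA on day 8, EC50 versus DMSO controls.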
In general terms: In Alpha technology, singlet oxygen from a donor bead excites a nearby acceptor bead.
Take `CC1CN(c2ccccc2)c2cc(C#N)c(-c3cccc(C(=O)O)c3)cc2S(=O)(=O)N1C` (centres unmarked) [Example 12, 3-(7-cyano-2,3-dimethyl-1,1-dioxido-5-phenyl-2,3,4,5-tetrahydrobenzo[f][1,2,5]thiadiazepin-8-yl)benzoic acid]: the EC50 was greater than 1000 nM. For `CCOc1ccc(N2C[C@@H](C3CCCCC3)N(C)S(=O)(=O)c3cc(-c4ccc(F)c(C(=O)O)c4)c(Cl)cc32)cc1` [Example 309] the value was 100 to 1000 nM; for `CC(C)C[C@@H]1CN(c2ccccc2)c2cc(OC(C)(C)C(F)(F)F)c(-c3ccc(Cl)c(C(=O)O)c3)cc2S(=O)(=O)N1C` [Example 452], 100 to 1000 nM. As for `CN1[C@H](C2CCCCC2)CN(c2ccccc2)c2cc(Oc3ccc(F)c(F)c3)c(-c3ccc(F)c(C(=O)O)c3)cc2S1(=O)=O` [Example 404], the EC50 is less than 100 nM. As to `CN1[C@H](C2CCCCC2)CN(c2cccc(Cl)c2)c2cc(Cl)c(-c3ccc(F)c(C(=O)O)c3)cc2S1(=O)=O` [Example 296], the EC50 was less than 100 nM. Regarding `CN1[C@H](C2CCCCC2)CN(c2ccccc2)c2cc(OC[C@@H]3CCCN(C(=O)OC(C)(C)C)C3)c(-c3ccc(F)c(C(=O)O)c3)cc2S1(=O)=O` [Example 369], the 50% effective concentration (EC50) lay within 100 to 1000 nM.

For `CN1[C@H](C2CCCCC2)CN(c2ccccc2)c2cc(O[C@H]3C[C@H](C#N)C3)c(-c3ccc(F)c(C(=O)O)c3)cc2S1(=O)=O` [Example 384], the EC50 lay within 100 to 1000 nM. With `CN1[C@H](C2CCCCC2)CN(c2ccccc2)c2cc(OCC3CCN(C(=O)OC(C)(C)C)CC3)c(-c3ccc(F)c(C(=O)O)c3)cc2S1(=O)=O` [Example 366], the EC50 was less than 100 nM. Take `CO[C@H]1C[C@@H](Oc2cc3c(cc2-c2ccc(F)c(C(=O)O)c2)S(=O)(=O)N(C)[C@H](C2CCCCC2)CN3c2ccccc2)C1` [Example 379]: the EC50 lay within 100 to 1000 nM. For `CC[C@@H](C)[C@@H]1CN(c2ccccc2)c2cc(Cl)c(-c3ccc(F)c(C(=O)O)c3)cc2S(=O)(=O)N1C` [Example 68] the value was less than 100 nM; for `CN1[C@H](C2CCCCC2)CN(c2ccncc2)c2cc(Cl)c(-c3ccc(F)c(C(=O)O)c3)cc2S1(=O)=O` [Example 283], greater than 1000 nM; for `CC(C)C[C@@H]1CN(c2ccccc2)c2cc(-c3ccc(F)cc3)c(-c3ccc(F)c(C(=O)O)c3)cc2S(=O)(=O)N1C` [Example 573, (R)-2-fluoro-5-(7-(4-fluorophenyl)-3-isobutyl-2-methyl-1,1-dioxido-5-phenyl-2,3,4,5-tetrahydrobenzo[f][1,2,5]thiadiazepin-8-yl)benzoic acid], less than 100 nM. For `CCCC[C@@H]1CN(c2ccccc2)c2cc(N3CCCC3)c(-c3cc(C(=O)O)n(C)n3)cc2S(=O)(=O)N1C` [Example 521] the value was 100 to 1000 nM; for `CC(=O)NS(=O)(=O)c1cccc(-c2cc3c(cc2Cl)N(c2ccccc2)C[C@@H](C2CCC2)N(C)S3(=O)=O)c1` [Example 228], 100 to 1000 nM; for `CN1[C@H](C2CCCCC2)CN(c2ccccc2)c2cc(Oc3ccccn3)c(-c3ccc(F)c(C(=O)O)c3)cc2S1(=O)=O` [Example 414], 100 to 1000 nM. For `CN1[C@H](CC2CC2)CN(c2ccccc2)c2cc(Cl)c(-c3ccc(F)c(C(=O)O)c3)cc2S1(=O)=O` [Example 73] the value was less than 100 nM. Consider `CN1[C@H](C2CCCCC2)CN(c2ccccc2)c2cc(OC3CC(C)(C)C3)c(-c3cc(F)c(C(=O)O)s3)cc2S1(=O)=O` [Example 483, (R)-5-(3-cyclohexyl-7-(3,3-dimethylcyclobutoxy)-2-methyl-1,1-dioxido-5-phenyl-2,3,4,5-tetrahydrobenzo[f][1,2,5]thiadiazepin-8-yl)-3-fluorothiophene-2-carboxylic acid], for which the EC50 is less than 100 nM. Regarding `CC(C)C[C@@H]1CN([C@@H]2CCOC2)c2cc(Oc3ccccc3F)c(-c3ccc(F)c(C(=O)O)c3)cc2S(=O)(=O)N1C` [Example 470], the EC50 lay in the range of 100 to 1000 nM. Turning to `CCCCC1CN(c2ccccc2)c2cc(CN3CCCCC3)c(-c3ccc(F)c(C(=O)O)c3)cc2S(=O)(=O)N1C` (centres unmarked) [Example 564], the concentration giving a half-maximal response (EC50) fell in the range of 100 to 1000 nM. For `C[C@H](OC(C)(C)C)[C@@H]1CN(c2ccccc2)c2cc(Cl)c(-c3ccc(F)c(C(=O)O)c3)cc2S(=O)(=O)N1C` [Example 91] the value was greater than 1000 nM; for `CO[C@H]1CCN(c2cc3c(cc2-c2ccc(F)c(C(=O)O)c2)S(=O)(=O)N(C)[C@H](C2CCCCC2)CN3c2ccccc2)C1` [Example 532], less than 100 nM; for `CO[C@H](C)COC(=O)Nc1cc(-c2cc3c(cc2Cl)N(c2ccccc2)C[C@@H](C2CCCCC2)N(C)S3(=O)=O)sc1C(=O)O` [Example 259], less than 100 nM. For `COCCOC(=O)Nc1ccc(-c2cc3c(cc2OCCOC)N(c2ccccc2)C[C@@H](C2CCCCC2)N(C)S3(=O)=O)cc1C(=O)O` [Example 479, (R)-5-(3-cyclohexyl-7-(2-methoxyethoxy)-2-methyl-1,1-dioxido-5-phenyl-2,3,4,5-tetrahydrobenzo[f][1,2,5]thiadiazepin-8-yl)-2-(((2-methoxyethoxy)carbonyl)amino)benzoic acid], the EC50 was less than 100 nM. For `CN1[C@H](C2CCCCC2)CN(c2ccccc2)c2cc(OCC3CC(F)(F)C3)c(-c3ccc(F)c(C(=O)O)c3)cc2S1(=O)=O` [Example 363] the value was less than 100 nM; for `CC(C)Oc1cc2c(cc1-c1ccc(F)c(C(=O)O)c1)S(=O)(=O)N(C)[C@H](C1CCCCC1)CN2c1ccccc1` [Example 357], less than 100 nM.

Turning to `CN1[C@H](C2CCCCC2)CN(c2ccccc2)c2cc(Cl)c(-c3cc(NC(=O)OCC(C)(C)C#N)c(C(=O)O)s3)cc2S1(=O)=O` [Example 256], the EC50 is less than 100 nM. Regarding `CN1[C@H](C2CCCCC2)CN(c2ccccc2)c2cc(Cl)c(-c3ccc(NC(=O)OCc4ccccc4)c(C(=O)O)c3)cc2S1(=O)=O` [Example 236], the EC50 is less than 100 nM. To `CN1[C@H](C2CCCCC2)CN(c2ccccc2)c2cc(Cl)c(-c3ccc4c(c3)C(=O)NC4=O)cc2S1(=O)=O` [Example 197] belongs greater than 1000 nM; to `CN1[C@H](C2CCCCC2)CN(c2ccccc2)c2cc(OC3CC4(CC4)C3)c(-c3ccc(F)c(C(=O)O)c3)cc2S1(=O)=O` [Example 385], less than 100 nM; to `CSc1cc2c(cc1-c1cccc(C(=O)O)c1)S(=O)(=O)N1C[C@H](C(F)(F)F)C[C@@H]1CN2c1ccccc1` [Example 23], greater than 1000 nM. To `CN1[C@H](C2CCCCC2)CN(c2ccccc2)c2cc(Cl)c(-c3ccc(C(F)(F)F)c(C(=O)O)c3)cc2S1(=O)=O` [Example 143, (R)-5-(7-chloro-3-cyclohexyl-2-methyl-1,1-dioxido-5-phenyl-2,3,4,5-tetrahydrobenzo[f][1,2,5]thiadiazepin-8-yl)-2-(trifluoromethyl)benzoic acid] belongs 100 to 1000 nM. To `CN1[C@H](C2CCCCC2)CN(c2ccccc2)c2cc(Cl)c(-c3ccc(O)c(C(=O)O)c3)cc2S1(=O)=O` [Example 156, (R)-5-(7-chloro-3-cyclohexyl-2-methyl-1,1-dioxido-5-phenyl-2,3,4,5-tetrahydrobenzo[f][1,2,5]thiadiazepin-8-yl)-2-hydroxybenzoic acid] belongs less than 100 nM.

In the case of `CC(C)C[C@@H]1CN(c2ccccc2)c2cc(Cl)c(-c3cc(C(=O)O)cc(C(F)(F)F)c3)cc2S(=O)(=O)N1C` [Example 164], the concentration for a half-maximal effect (EC50) lay within 100 to 1000 nM. For `CN1[C@H](C2CCCCC2)CN(c2ccccc2)c2cc(O[C@H]3C[C@@H](C#N)C3)c(-c3ccc(F)c(C(=O)O)c3)cc2S1(=O)=O` [Example 382] the value was less than 100 nM; for `CN1[C@H](C2CC(F)(F)C2)CN(c2ccccc2)c2cc(Cl)c(-c3ccc(Cl)c(C(=O)O)c3)cc2S1(=O)=O` [Example 32], 100 to 1000 nM.

As for `CC(C)C[C@@H]1CN(c2ccccc2)c2cc(OC(C)(C)C)c(-c3ccc(Cl)c(C(=O)O)c3)cc2S(=O)(=O)N1C` [Example 440], the EC50 was less than 100 nM. For `CC(C)C[C@@H]1CN(c2ccccc2)c2cc(Oc3cccc(C(F)(F)F)c3)c(-c3ccc(F)c(C(=O)O)c3)cc2S(=O)(=O)N1C` [Example 425] the value was less than 100 nM; for `CN1[C@H](C2CC(F)(F)C2)CN(c2ccccc2)c2cc(Cl)c(-c3cc(F)c(F)c(C(=O)O)c3)cc2S1(=O)=O` [Example 31], 100 to 1000 nM; for `CC(C)C[C@@H]1CN(c2ccccc2)c2cc(Cl)c(-c3ccc4[nH]cc(C(=O)O)c4c3)cc2S(=O)(=O)N1C` [Example 212], greater than 1000 nM.

On to `CN1[C@H](C2CCCCC2)CN(c2ccc(F)cc2)c2cc(Cl)c(-c3ccc(F)c(C(=O)O)c3)cc2S1(=O)=O` [Example 294], for which the concentration giving a half-maximal response (EC50) lay in the range of 100 to 1000 nM. For `COc1cc(F)ccc1Oc1cc2c(cc1-c1ccc(F)c(C(=O)O)c1)S(=O)(=O)N(C)[C@H](C1CCCCC1)CN2c1ccccc1` [Example 406] the value was less than 100 nM; for `CC(C)C[C@@H]1CN(c2ccccc2)c2cc(Cl)c(-c3cccc(/C=C/C(=O)O)c3)cc2S(=O)(=O)N1C` [Example 171], greater than 1000 nM. To `CN1[C@H](C2CCCCC2)CN(c2ccccc2)c2cc(Cl)c(-c3cc(NC(=O)OCC(C)(F)F)c(C(=O)O)s3)cc2S1(=O)=O` [Example 244] belongs less than 100 nM; to `O=C(O)c1cc(-c2cc3c(cc2F)N(c2ccccc2)C[C@H]2C[C@@H](C(F)(F)F)CN2S3(=O)=O)ccc1F` [Example 10], greater than 1000 nM; to `CC(C)C[C@@H]1CN(c2ccccc2)c2cc(Oc3ccccc3Cl)c(-c3ccc(F)c(C(=O)O)c3)cc2S(=O)(=O)N1C` [Example 431], less than 100 nM. For `CN1[C@H](C2CCCCC2)CN(c2ccccc2)c2cc(C3CCN(C(=O)C(F)(F)F)C3)c(-c3ccc(F)c(C(=O)O)c3)cc2S1(=O)=O` (some centres unmarked) [Example 601] the value was 100 to 1000 nM; for `CN1[C@H](C2CCCCC2)CN(c2cnccn2)c2cc(Cl)c(-c3ccc(F)c(C(=O)O)c3)cc2S1(=O)=O` [Example 289], 100 to 1000 nM.

For the origin of these results see US20240368096A1 (Enanta Pharmaceuticals, Inc., priority 2022, published 2024).
